Data taken from article PMC8927117, “Structural Insight into the MCM double hexamer activation by Dbf4-Cdc7 kinase” (Nature Communications, 2022).

Tests used:
[1] = tested on: T1, MCM double hexamer (MCM-DH, Mcm2-7); experiment: cryo-EM structure; set-up: species or system Saccharomyces cerevisiae; conditions: with DDK bound, nucleotide-binding pockets of MCM subunits
T1 construct: endogenous double hexamer from G1 chromatin, TEV-3xFLAG tag on Mcm7 or Mcm2

DDK (Dbf4-Cdc7 kinase) = target: T2, DDK (Dbf4-Cdc7 kinase) (Saccharomyces cerevisiae, UniProt P06243); experiment: cryo-EM structure; type: binding; conditions: bound to MCM double hexamer, glutaraldehyde Grafix, 1 mM ATP-γ-S, 8 mM Mg(OAc)2; Cdc7 active center
T2 construct: Dbf4 704 residues; with DDK kinase regulatory subunit DBF4
T2 sequence (P06243 whole entry): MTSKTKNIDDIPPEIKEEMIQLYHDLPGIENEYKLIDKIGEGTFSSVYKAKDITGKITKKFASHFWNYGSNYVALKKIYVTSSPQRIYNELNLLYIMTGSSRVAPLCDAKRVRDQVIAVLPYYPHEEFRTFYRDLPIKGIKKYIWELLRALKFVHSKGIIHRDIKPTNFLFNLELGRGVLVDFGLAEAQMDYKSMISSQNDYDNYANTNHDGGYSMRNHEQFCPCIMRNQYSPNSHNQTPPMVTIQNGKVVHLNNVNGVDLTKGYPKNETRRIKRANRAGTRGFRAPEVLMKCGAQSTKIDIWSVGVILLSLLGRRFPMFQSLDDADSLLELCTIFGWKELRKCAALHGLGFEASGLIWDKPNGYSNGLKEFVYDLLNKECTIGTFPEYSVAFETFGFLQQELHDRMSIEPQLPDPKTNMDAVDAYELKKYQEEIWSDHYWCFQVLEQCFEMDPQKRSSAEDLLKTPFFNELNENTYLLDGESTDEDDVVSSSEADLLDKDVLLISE
T2 sequence (P32325 whole entry partner): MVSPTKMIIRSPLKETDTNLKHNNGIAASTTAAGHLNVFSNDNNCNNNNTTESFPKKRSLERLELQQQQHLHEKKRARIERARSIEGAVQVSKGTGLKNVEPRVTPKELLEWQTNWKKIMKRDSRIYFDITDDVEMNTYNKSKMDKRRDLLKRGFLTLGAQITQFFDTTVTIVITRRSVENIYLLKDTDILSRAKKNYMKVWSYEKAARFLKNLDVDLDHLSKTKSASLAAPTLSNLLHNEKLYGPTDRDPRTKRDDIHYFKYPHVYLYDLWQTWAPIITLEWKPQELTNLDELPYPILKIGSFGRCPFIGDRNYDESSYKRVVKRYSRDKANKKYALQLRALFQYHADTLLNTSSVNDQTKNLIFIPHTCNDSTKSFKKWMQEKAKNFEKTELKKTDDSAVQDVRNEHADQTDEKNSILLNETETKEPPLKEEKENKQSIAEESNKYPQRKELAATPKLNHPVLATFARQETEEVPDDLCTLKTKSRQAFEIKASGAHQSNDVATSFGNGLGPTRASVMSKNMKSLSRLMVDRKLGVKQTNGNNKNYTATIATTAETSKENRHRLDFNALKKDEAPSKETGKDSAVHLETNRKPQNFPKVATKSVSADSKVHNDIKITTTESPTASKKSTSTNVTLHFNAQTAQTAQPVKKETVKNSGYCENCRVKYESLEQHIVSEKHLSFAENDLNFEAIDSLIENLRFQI

Row | SMILES | cryo-EM structure ([1]; no ADP added) | cryo-EM structure (DDK (Dbf4-Cdc7 kinase)) | cryo-EM structure ([1]; 1 mM ATP-γ-S)
1 | Nc1ncnc2c1ncn2[C@@H]1O[C@H](COP(=O)(O)OP(=O)(O)O)[C@@H](O)[C@H]1O [ADP] | nucleotide-binding pockets of MCM subunits were modeled as ATP-γ-S or ADP | – | –
2 | Nc1ncnc2c1ncn2[C@@H]1O[C@H](COP(=O)(O)OP(=O)(O)OP(O)(O)=S)[C@@H](O)[C@H]1O [ATP-γ-S] | – | Thr506, is situated close to the γ-phosphate of the ATP-γ-S nucleotide in the active center | nucleotide-binding pockets of MCM subunits were modeled as ATP-γ-S or ADP
